These results are taken from the Kinase Knowledgebase extract (Sharma et al. 2016).

The target in this assay is EGFR (Wistar rat) (UniProt P00533). Particulars: hepatocyte, dose or concentration not given here.
EGFR (Wistar rat), sequence (P00533 whole entry, looked up): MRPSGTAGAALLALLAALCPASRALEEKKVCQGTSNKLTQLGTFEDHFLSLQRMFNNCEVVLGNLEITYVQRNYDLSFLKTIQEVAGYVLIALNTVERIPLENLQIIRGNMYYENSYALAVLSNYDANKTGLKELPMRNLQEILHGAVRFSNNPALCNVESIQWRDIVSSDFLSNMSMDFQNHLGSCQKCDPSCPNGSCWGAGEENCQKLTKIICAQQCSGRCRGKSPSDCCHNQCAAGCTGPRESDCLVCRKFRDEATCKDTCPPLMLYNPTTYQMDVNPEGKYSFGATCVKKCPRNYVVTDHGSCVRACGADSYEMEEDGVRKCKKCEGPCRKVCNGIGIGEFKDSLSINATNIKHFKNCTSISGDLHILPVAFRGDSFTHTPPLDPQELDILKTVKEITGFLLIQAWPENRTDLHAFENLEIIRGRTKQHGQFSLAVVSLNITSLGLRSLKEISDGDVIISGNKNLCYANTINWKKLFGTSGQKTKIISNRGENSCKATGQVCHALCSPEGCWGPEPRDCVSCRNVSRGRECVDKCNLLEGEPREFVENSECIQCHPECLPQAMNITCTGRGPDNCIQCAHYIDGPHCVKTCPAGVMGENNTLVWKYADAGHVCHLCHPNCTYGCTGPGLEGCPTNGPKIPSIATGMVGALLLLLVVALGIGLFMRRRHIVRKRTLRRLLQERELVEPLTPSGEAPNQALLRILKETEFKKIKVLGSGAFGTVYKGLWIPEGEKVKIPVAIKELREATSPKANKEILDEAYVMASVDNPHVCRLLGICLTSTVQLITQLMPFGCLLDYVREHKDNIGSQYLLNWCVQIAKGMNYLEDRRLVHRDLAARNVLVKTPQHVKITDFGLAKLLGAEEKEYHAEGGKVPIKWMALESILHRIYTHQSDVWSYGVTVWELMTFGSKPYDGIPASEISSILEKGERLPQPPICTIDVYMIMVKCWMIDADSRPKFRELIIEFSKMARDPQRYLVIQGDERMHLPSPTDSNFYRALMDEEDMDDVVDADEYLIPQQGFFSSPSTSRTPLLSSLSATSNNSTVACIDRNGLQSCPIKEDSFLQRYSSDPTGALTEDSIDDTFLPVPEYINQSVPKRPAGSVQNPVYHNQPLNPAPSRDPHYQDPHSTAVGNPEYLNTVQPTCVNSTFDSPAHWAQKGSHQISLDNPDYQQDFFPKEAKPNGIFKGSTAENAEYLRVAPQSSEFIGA

The compound `COc1cccc(-c2cc(=O)c3ccccc3o2)c1N` displayed a DNA synthesis of 16%.
